Test results from US20050209195A1, “Indolinone derivatives” (Cell Therapeutics Europe S.r.I, priority 2004, published 2005).

Columns and labels:
[1] = target: T1, Human cKit Tyrosine Kinase Receptor (human cKit RTK-catalytic domain) (Homo sapiens, UniProt P10721); experiment: DELFIA cKit Tyrosine Kinase Assay (cell-free); format: biochemical; conditions: cell-free DELFIA, 25 ng cKit TKR, 150 μM ATP, 20 minutes at 30° C.; read-out: IC50
T1 construct: human cKit RTK-catalytic domain; purchased Panvera-Invitrogen P3080
Protocol: The compounds of the invention were tested with a dedicated cell-free kinase assay for the evaluation of the inhibiting activity on tyrosine kinases.
In more detail, the assay was a DELFIA™ (Dissociation Enhanced Time-Resolved Fluorometric Assay) Tyrosine Kinase Assay™ (PerkinElmer), a highly sensitive, reproducible ELISA assay that allows to evaluate the activity of a tyrosine kinase.
Human cKit Tyrosine Kinase Receptor (human cKit RTK-catalytic domain), commercially available from Panvera-Invitrogen (Cat. N^o. P3080), was used as the tyrosine kinase.
After 1 hour incubation at room temperature and three washings with 1×DELFIA Wash Buffer (PerkinElmer), the phosphotyrosine residues of the acceptor were detected with an europium-labelled anti-phosphotyrosine monoclonal antibody (DELFIA Eu-N1 labelled anti-phosphotyrosine antibody PT66, PerkinElmer) and, after a further hour incubation at room temperature and three washings with 1×DELFIA Wash Buffer, overall phosphorylation of biotinylated polyGAT was determined by addition of Enhancement Solution (PerkinElmer) and fluorimetric analysis of the plates (α-Fusion FP HT, PerkinElmer) in the “Time-Resolved Fluorescence” mode.

[2] = tested on: NIH3T3^MEN2A(C634R) cells; experiment: Reversal of morphologically transformed phenotype, contrast phase microscopy, 24 h; format: cell-based, murine; conditions: 24 h treatment; for minimal effective concentration: Mus musculus, NIH3T3MEN2A, read-out: Morphology a 24 h: concentration from which reversal was observed
Protocol: (§1) NIH3T3 Murine fibroblasts and the transfected line NIH3T3^MEN2A(C634R) were treated with increasing concentrations of the compounds of the invention for 72 h. Survival curves were obtained by Coulter Counter cell count. IC50s calculated from said curves are reported in Table 9: the higher sensitivity of the oncoprotein-expressing cell line is evident. The reversal of the morphologically transformed phenotype of NIH3T3^MEN2A (C634R) cells in the presence of the compounds of the invention was evaluated by contrast phase microscopy after 24 h treatment and photographically documented.

[3] = tested on: NIH3T3^MEN2A(C634R) cells; experiment: Survival curves by Coulter Counter cell count, 72 h; format: cell-based, murine; conditions: Mus musculus, NIH3T3MEN2A, 72 h treatment, read-out: Cont at 72 h IC50
Protocol: as §1

[4] = target: T2, human Ret TKR-catalytic domain (Homo sapiens, UniProt P07949); experiment: DELFIA Ret Kinase Assay (cell-free); format: biochemical; conditions: cell-free DELFIA, 50 ng Ret TKR, 3 μM ATP, 10 min. at 30° C.; read-out: IC50
T2 construct: human Ret TKR-catalytic domain; purchased ProQinase
T2 sequence (P07949 724-1016 limits assumed): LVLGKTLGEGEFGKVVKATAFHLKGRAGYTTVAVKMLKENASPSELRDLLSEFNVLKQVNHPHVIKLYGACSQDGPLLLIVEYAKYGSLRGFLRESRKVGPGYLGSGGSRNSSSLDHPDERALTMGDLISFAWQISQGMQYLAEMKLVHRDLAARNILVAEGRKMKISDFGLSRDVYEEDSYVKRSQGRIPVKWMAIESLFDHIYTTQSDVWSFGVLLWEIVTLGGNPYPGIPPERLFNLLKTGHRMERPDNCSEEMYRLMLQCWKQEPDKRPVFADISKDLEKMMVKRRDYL
Protocol: In order to evidence and quantify inhibitory activity on Ret tyrosine kinase, the most representative compounds of the invention were tested with a dedicated DELFIA kinase assay, using a human tyrosine-kinase receptor (Ret TKR) recombinant form (human Ret TKR-catalytic domain) available from ProQinase as the tyrosine kinase.
After 10 min. incubation at 30° C., the kinase reactions were worked up as in the DELFIA cKit Kinase Assay.

[5] = tested on: NIH3T3 cells transformed by oncoprotein Ret/ptc1; conditions: cited from earlier work
[6] = tested on: PDGF-R; conditions: cited from earlier work
[7] = target: Ret/MEN2B (mutM918T) (Homo sapiens, UniProt P07949, M918T); conditions: cited from earlier work
[8] = tested on: Ret/MEN2A (mutC634R and mutC634W); conditions: cited from earlier work
[9] = target: Met (Homo sapiens, UniProt P08581); conditions: cited from earlier work
[10] = tested on: cells transformed by Ret/MEN2A, Ret/MEN2B, Met, PDGF-R, FGF-R1, FGF-R3 and Kit; conditions: cited from earlier work
[11] = tested on: tyrosine kinases Ret/MEN2A, Ret/MEN2B, Met, PDGF-R, FGF-R1, FGF-R3 and Kit; conditions: cited from earlier work
[12] = target: FGF-R1 (Homo sapiens, UniProt P11362); conditions: cited from earlier work
[13] = tested on: Kit (c-Kit and mutΔ559); conditions: cited from earlier work
[14] = target: FGF-R3 (Homo sapiens, UniProt P22607); conditions: cited from earlier work
Sequence of FGF-R3 (P22607 23-806, species assumed): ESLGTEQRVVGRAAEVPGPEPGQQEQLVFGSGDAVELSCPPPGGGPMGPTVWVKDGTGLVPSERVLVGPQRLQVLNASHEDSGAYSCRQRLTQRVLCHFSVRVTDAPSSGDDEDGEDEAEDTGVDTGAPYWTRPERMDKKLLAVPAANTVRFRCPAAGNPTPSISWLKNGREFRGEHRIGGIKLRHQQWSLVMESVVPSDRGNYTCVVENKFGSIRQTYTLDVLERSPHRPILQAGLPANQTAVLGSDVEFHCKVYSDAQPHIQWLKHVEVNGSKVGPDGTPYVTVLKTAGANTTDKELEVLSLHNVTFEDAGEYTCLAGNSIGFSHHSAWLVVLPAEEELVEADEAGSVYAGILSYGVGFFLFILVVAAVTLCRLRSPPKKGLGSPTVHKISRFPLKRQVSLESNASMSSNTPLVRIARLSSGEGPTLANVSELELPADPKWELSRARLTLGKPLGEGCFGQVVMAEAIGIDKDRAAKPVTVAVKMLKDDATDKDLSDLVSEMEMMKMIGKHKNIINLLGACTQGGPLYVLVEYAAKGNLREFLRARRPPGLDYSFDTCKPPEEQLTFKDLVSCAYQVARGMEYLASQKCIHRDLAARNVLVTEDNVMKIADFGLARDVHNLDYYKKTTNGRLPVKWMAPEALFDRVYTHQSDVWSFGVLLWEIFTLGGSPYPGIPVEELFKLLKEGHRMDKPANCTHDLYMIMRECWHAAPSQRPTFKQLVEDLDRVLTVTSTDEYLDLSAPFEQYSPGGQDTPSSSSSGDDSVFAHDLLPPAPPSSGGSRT

T1 sequence (P10721 589-937 limits assumed): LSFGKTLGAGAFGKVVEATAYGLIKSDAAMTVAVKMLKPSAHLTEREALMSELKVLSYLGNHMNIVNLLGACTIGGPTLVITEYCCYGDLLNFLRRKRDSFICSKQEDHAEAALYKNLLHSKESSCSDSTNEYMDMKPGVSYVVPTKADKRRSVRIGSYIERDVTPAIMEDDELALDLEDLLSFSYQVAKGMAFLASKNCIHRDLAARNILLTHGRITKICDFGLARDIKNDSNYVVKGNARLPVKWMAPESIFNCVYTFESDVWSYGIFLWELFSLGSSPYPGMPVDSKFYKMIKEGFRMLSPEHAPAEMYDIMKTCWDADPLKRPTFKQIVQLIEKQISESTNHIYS
Sequence of Ret/MEN2B (mutM918T) (P07949 29-1114 M918T): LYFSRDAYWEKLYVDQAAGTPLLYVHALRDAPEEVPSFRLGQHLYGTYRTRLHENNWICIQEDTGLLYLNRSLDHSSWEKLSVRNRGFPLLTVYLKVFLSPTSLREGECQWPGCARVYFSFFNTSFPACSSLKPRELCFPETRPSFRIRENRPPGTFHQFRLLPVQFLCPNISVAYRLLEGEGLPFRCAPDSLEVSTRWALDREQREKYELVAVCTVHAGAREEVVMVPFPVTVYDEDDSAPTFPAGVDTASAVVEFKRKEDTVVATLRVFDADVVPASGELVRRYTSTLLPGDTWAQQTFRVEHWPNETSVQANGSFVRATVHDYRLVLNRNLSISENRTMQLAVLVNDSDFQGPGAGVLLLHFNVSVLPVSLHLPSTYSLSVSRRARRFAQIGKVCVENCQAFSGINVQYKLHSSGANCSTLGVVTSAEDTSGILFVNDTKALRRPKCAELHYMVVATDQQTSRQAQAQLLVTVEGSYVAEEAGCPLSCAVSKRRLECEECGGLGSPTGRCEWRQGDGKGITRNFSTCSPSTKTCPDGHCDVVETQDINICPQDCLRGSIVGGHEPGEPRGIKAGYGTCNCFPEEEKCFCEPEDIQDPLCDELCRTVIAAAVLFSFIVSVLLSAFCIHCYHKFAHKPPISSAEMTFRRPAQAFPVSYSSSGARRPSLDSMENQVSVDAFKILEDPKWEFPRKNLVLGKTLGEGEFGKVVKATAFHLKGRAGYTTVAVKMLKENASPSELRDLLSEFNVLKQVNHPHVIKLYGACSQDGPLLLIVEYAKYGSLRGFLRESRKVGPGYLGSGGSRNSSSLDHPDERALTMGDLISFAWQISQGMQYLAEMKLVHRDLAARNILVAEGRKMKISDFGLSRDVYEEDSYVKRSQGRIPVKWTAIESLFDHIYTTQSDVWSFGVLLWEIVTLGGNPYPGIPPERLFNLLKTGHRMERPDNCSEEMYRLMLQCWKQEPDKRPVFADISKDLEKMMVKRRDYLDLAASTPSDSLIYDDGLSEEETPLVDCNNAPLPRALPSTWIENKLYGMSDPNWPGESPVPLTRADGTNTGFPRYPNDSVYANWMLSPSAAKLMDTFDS
Sequence of FGF-R1 (P11362 22-822, species assumed): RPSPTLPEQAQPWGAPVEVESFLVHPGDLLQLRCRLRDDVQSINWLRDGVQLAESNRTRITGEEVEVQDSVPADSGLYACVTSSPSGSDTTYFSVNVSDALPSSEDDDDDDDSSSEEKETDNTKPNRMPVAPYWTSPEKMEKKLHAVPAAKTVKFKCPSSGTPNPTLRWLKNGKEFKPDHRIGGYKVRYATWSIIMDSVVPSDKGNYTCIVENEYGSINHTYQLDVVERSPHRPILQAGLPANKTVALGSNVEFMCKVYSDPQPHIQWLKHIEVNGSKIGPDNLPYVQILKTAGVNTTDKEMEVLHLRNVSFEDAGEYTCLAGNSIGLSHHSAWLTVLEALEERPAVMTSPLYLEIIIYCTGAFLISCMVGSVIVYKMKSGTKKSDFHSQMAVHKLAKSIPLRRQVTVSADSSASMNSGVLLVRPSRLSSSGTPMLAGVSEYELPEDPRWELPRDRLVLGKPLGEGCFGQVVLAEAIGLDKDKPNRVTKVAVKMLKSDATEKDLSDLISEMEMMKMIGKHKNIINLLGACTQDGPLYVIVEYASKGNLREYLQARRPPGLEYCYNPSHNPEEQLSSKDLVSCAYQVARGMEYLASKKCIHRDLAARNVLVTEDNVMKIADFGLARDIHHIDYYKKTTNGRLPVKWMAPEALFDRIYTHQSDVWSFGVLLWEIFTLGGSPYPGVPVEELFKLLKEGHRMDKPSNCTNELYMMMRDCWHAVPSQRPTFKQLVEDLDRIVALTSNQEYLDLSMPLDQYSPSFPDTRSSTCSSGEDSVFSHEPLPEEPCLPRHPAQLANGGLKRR
Sequence of Met (P08581 25-1390): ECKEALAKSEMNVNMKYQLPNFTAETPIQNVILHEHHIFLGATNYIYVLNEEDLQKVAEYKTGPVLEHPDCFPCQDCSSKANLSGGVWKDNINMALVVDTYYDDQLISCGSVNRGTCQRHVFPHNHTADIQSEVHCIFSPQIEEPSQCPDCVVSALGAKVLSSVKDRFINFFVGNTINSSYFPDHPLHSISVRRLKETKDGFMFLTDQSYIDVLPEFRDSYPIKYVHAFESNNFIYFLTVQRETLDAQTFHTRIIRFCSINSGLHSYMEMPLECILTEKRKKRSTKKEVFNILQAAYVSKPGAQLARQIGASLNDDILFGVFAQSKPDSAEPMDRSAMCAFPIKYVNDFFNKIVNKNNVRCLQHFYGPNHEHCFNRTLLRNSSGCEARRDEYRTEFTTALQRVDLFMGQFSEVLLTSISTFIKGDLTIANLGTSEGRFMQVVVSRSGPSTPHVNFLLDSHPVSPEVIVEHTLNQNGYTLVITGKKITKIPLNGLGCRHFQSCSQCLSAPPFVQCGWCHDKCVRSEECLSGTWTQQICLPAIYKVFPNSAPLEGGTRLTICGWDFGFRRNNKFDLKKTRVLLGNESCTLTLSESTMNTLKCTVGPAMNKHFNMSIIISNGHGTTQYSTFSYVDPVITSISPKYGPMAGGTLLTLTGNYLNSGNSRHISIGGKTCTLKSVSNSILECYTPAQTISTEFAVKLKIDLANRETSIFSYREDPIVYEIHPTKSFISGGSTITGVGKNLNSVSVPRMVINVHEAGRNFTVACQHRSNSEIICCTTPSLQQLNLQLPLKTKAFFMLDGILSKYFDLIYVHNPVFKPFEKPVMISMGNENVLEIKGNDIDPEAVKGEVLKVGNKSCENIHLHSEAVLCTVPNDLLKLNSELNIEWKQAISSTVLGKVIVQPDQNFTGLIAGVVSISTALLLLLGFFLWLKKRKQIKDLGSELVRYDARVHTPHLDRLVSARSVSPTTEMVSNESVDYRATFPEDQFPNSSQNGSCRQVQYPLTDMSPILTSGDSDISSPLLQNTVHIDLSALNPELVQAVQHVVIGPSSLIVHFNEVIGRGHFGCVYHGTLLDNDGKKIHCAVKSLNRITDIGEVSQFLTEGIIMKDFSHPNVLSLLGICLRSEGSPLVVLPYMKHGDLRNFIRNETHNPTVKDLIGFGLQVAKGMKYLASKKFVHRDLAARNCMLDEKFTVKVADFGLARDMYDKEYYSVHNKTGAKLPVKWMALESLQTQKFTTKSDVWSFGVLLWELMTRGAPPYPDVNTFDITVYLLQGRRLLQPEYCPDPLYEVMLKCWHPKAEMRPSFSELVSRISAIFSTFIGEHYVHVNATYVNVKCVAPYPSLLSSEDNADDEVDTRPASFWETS

Row | Structure (SMILES) | IC50 [1] | melting point | Morphology a 24 h [2] | IC50 [3] | IC50 [4] | minimal effective concentration [2] | restoring the normal phenotype in transformed cells [5] | inhibition of self-phosphorylation [6] | inhibition of self-phosphorylation [7] | inhibition of self-phosphorylation [8] | inhibition of self-phosphorylation [9] | restoring the phenotype of transformed cells [10] | down regulation of tyrosine kinase expression [11] | inhibition of self-phosphorylation [12] | inhibition of self-phosphorylation [13] | inhibition of self-phosphorylation [14]
1 | COc1cc2c(cc1OC)/C(=C\c1ccc(OC(=O)N3CCN(CCO)CC3)cc1)C(=O)N2 [B.3, 4-(2-Hydroxyethyl)piperazine-1-carboxylic Acid, (E)-4-(5,6-dimethoxy-2-oxo-1,2-dihydro-indol-3-ylidenemethyl)phenyl Ester] | 6.74 µM | 217 to 220 °C | REVERSAL | 3.1 ± 1.3 µM | 1.77 µM | – | – | – | – | – | – | – | – | – | – | –
2 | CCCCCNC(=O)Oc1ccc(/C=C2/C(=O)Nc3cc(OC)c(OC)cc32)cc1 [A.3, n-Pentyl Carbamic Acid, (E)-4-(5,6-dimethoxy-2-oxo-1,2-dihydro-indol-3-ylidenemethyl)phenyl Ester] | 0.38 ± 0.16 µM | 173 to 175 °C | REVERSAL | 2.2 ± 0.7 µM | 1.78 µM | ≥ 5 µM | – | – | – | – | – | – | – | – | – | –
3 | COc1cc2c(cc1OC)/C(=C\c1ccc(OP(=O)(O)O)cc1)C(=O)N2 [Example C.1, (E)-4-(5,6-dimethoxy-2-oxo-1,2-dihydro-indol-3-ylidenemethyl)phenyl Phosphoric Acid] | 51.8 µM | 218 to 220 °C | REVERSAL | 3.9 ± 0.25 µM | 2.61 µM | ≥ 10 µM | – | – | – | – | – | – | – | – | – | –
4 | COc1cc2c(cc1OC)/C(=C\c1ccc(O)cc1)C(=O)N2 [(E)-1,3-dihydro-4-hydroxybenzylidene-5,6-dimethoxy-1H-indol-2-one] | 2.37 ± 0.68 µM | – | REVERSAL | 3.6 ± 1.6 µM | 3.67 µM | ≥ 6 µM | restoring the normal phenotype | fully inhibiting | fully inhibiting | fully inhibiting | fully inhibiting | restoring the phenotype of cells transformed by them | down regulating their expression | fully inhibiting | fully inhibiting | fully inhibiting
5 | COc1cc2c(cc1OC)/C(=C\c1ccc(OC(=O)N3CCN(C)CC3)cc1)C(=O)N2 [Example B.1, (E)-4-methyl-piperazine-1-carboxylic Acid, 4-(5,6-dimethoxy-2-oxo-1,2-dihydro-indol-3-ylidenemethyl)phenyl Ester] | 4.46 µM | 198 to 200 °C | REVERSAL | 2.8 ± 0.5 µM | 13.3 µM | ≥ 10 µM | – | – | – | – | – | – | – | – | – | –
